# Laboratory results from article PMC7253177, “Gain of channel function and modified gating properties in TRPM3 mutants causing intellectual disability and epilepsy” (eLife, 2020).
# Experiments:
# TRPM3 P1090Q mutant = biological target: T1, TRPM3 P1090Q mutant (Homo sapiens, UniProt Q9HCF6, P1115Q)
# T1 sequence (Q9HCF6 1-1325 isoform Q9HCF6-10 P1090Q): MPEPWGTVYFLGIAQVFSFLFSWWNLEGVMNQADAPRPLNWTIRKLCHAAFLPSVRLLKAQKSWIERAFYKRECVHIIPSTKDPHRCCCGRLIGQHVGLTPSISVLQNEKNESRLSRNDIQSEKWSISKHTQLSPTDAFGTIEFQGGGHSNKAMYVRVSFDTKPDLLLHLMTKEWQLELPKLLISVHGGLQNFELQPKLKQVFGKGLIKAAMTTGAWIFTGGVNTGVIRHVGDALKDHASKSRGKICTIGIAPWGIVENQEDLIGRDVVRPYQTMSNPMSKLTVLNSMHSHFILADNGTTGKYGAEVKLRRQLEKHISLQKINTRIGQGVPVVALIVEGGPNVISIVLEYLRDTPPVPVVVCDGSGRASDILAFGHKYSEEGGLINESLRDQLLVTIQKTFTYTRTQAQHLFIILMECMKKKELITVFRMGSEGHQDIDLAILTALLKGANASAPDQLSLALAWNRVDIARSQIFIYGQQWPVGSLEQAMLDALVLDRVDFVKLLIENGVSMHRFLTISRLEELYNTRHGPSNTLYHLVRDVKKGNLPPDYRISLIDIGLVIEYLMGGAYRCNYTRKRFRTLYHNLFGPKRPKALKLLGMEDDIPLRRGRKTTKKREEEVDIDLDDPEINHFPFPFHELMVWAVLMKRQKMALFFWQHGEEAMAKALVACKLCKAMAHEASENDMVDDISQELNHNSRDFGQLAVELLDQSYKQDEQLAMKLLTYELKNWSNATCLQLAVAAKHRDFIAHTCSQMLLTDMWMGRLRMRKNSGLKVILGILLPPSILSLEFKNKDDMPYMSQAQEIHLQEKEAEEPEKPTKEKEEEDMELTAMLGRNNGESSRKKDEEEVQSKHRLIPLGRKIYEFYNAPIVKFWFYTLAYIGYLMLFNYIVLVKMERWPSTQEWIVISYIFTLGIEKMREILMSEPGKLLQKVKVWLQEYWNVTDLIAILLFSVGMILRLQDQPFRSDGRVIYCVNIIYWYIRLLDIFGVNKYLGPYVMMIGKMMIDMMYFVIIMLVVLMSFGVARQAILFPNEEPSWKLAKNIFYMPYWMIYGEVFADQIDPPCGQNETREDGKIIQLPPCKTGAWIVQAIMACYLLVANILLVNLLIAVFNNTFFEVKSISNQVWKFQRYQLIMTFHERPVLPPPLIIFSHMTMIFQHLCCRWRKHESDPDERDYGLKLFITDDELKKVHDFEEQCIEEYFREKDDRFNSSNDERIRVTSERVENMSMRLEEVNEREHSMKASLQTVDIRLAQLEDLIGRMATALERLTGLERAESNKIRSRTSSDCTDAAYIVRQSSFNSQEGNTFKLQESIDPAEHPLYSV
# Procedure: (§1) HEK293T cells ([Graham et al., 1977]) were cultured as described previously ([Vriens et al., 2007]) and used up in passage number 14. HEK293T cells were tested for the lack of mycoplasma and transiently transfected with 2 µg of DNA using TransIT transfection reagent (Mirus) 36–48 hr before the measurements. In case of co-cultures a ratio of 1:1 between hTRPM3-YFP WT and mutants-YFP DNA was used.
# All mutants were obtained by the standard PCR overlap extension method using hTRPM3 directly linked to YFP from pCAGGS/IRES-GFP vector ([Vriens et al., 2007]). Accuracy of all mutant sequences was verified by sequencing of the entire DNA constructs.
# Standard whole-cell patch-clamp recordings were performed with an EPC-10 amplifier and the PatchMasterPro Software (HEKA Elektronik, Lambrecht, Germany). Current measurements were performed at a sampling rate of 20 kHz and currents were digitally filtered at 2.9 kHz. In all measurements, 70% of the series resistance was compensated. The standard internal solution contained (in mM): 100 CsAsp, 45 CsCl, 10 EGTA, 10 HEPES, 1 MgCl2 (pH 7.2 with CsOH) or 140 potassium gluconate, 5 EGTA, 1 MgCl2, 10 HEPES and 2 NaATP (pH 7.3 with CsOH) for the measurements of Gβγ mediated inhibition and the standard extracellular solution contained (in mM): 150 NaCl, 1 MgCl2, 10 HEPES (pH 7.4 with NaOH). The standard patch pipette resistance was between 2 MΩ and 4 MΩ when filled with pipette solution. In experiments allowing Ca^2+-dependent desensitization of TRPM3, Mg^2+ was replaced by Ca^2+ in the extracellular solution, and Cs^+ was replaced by Na^+ in the pipette solution. […] The chemical ligands were dissolved in bath solution from a stock diluted in DMSO.
# WT:V990M TRPM3 mixture = test: Whole-cell patch clamp, HEK293T cells co-transfected with WT and V990M TRPM3 (1:1); type: cell-based, human; conditions: WT:V990M 1:1; Clt 10 µM
# Excerpt: (§2) Considering that all reported DEE patients were heterozygous for the TRPM3 substitutions ([Dyment et al., 2019]), and that TRPM3 is functional as a tetramer, it can be expected that patient cells express a mixture of WT and mutant channel subunits, potentially leading to the formation of heteromultimeric channels with variable stoichiometry. To mimic the heterozygous condition in vitro, we performed a limited number of experiments in cells co-transfected with a mixture of cDNA encoding WT and mutant TRPM3 in a 1:1 ratio.
# as §1
# (§3) Standard whole-cell patch-clamp recordings were performed with an EPC-10 amplifier and the PatchMasterPro Software (HEKA Elektronik, Lambrecht, Germany). Current measurements were performed at a sampling rate of 20 kHz and currents were digitally filtered at 2.9 kHz. In all measurements, 70% of the series resistance was compensated. […]
# WT:P1090Q TRPM3 mixture = test: Whole-cell patch clamp, HEK293T cells co-transfected with WT and P1090Q TRPM3 (1:1); type: cell-based, human; conditions: WT:P1090Q 1:1; Clt 10 µM, PS 40 µM
# Excerpt: as §2, §1, §3
SMILES,Activation of whole-cell currents in the absence of PS (TRPM3 P1090Q mutant; Clt 10 µM),"Effect on the response to PS (whole-cell currents) (TRPM3 P1090Q mutant; Clt 10 µM, PS 40 µM)",Activation of whole-cell currents in the absence of PS (WT:V990M TRPM3 mixture),Effect of pre-incubation on PS responses (whole-cell currents) (WT:P1090Q TRPM3 mixture),"Inhibition of PS-activated inward and outward currents (TRPM3 P1090Q mutant; primidone 25 µM, PS 40 µM, ±80 mV, cells co-expressing µ-opioid receptor)"
"Clc1ccccc1C(c1ccccc1)(c1ccccc1)n1ccnc1 [Clt, clotrimazole]",did not activate currents,inhibited the response to PS,activated robust currents,"first a potentiation of the PS responses by pre-incubation of Clt, followed by a time-dependent current inhibition",–
CCC1(c2ccccc2)C(=O)NCNC1=O [primidone],–,–,–,–,full inhibition
